Source: patent US5698529A, “Chemotherapeutic compositions” (Supratek Pharma, Inc., priority 1996, dated 1997)
Values after ≈ are worked out from the molar mass of the structure shown.

Key:
[1] = tested on: human ovarian carcinoma cells (CRL157); assay: Cytotoxicity to human ovarian carcinoma cells (CRL157), Example 1; assay type: cell-based; details: Ovarian carcinoma cell
Procedure: A. A block copolymer of poly(oxyethylene)-poly(oxypropylene) in which N=0.25 (Pluronic F-68) is diluted with RPMI 1640 medium to a final concentration of 2.0% at 4° C. The mixture is incubated for 30 minutes at 37° C. and then sterilely filtered through a 0.22 μm filter. An equal volume of a solution of 200 μg daunorubicin in RPMI 1640 medium is added and this mixture is incubated for 30 minutes at 37° C.
(§1) B. Human ovarian carcinoma cells (CRL157) are precultured in 1% solution of the same block copolymer but without daunorubicin in RPMI 1640 medium supplemented with 10% calf fetal serum. The preparation of part A is added and the mixture is incubated for 60 minutes at 37° C. and the cells then washed three times with RPMI 1640 and cultured in RPMI 1640 supplemented with 10% calf fetal serum for 3 days {Prep. A}. Cytotoxicity is measured, both for this preparation and a parallel preparation of free daunorubicin {Prep. B}, using the method of Alley et al., Cancer Res., 48, 589-601 (1988).

[2] = tested on: human ovarian cancer cells (CRL157); assay: Cytotoxicity to human ovarian cancer cells (CRL157), Example 3; assay type: cell-based
Procedure: as §1, with “(1988). The results are as follows:” for “(1988).”
(§2) A. A 1:1.5 mixture of block copolymers of poly(oxyethylene)-poly(oxypropylene) (pluronics P-85 and L-64) having individual ratios (n) of (oxypropylene) to (oxyethylene) blocks of 1.00 and 1.50, respectively, and a combined value (N) of 1.30, is diluted with RPMI 1640 medium to a final concentration of 2.0% at 4° C. The mixture is incubated for 30 minutes at 37° C. and then sterilely filtered through a 0.22 μm filter. An equal volume of a solution of 200 μg daunorubicin in RPMI 1640 medium is added and this mixture is incubated for 30 minutes at 37° C.
B. Cytotoxicity to human ovarian cancer cells (CRL157) is measured, both for this preparation {Prep. A} and a parallel preparation of free daunorubicin {Prep. B} as described in Example 1B.

[3] = tested on: human T-lymphoma (Jurkat) cells; assay: Cytotoxicity in human T-lymphoma (Jurkat) cells, Example 4; assay type: cell-based
Procedure: as §1, with “(1988). The results are as follows:” for “(1988).”
as §2
(§3) Daunorubicin in the composition of Example 3 is evaluated for cytotoxicity in (i) human T-lymphoma (Jurkat) cells as described in Example 1 and (ii) normal human mononuclear cells.

[4] = tested on: normal human mononuclear cells; assay: Cytotoxicity in normal human mononuclear cells, Example 4; assay type: cell-based
Procedure: as §1, with “(1988). The results are as follows:” for “(1988).”
as §2, §3

[5] = tested on: normal human mononuclear cells; assay: IC50 at intervals of drug contact, normal mononuclear cells, Example 5; assay type: cell-based
Procedure: Measurements are made at the indicated intervals of the drug contact with the cells from 15 minutes to 12 hours.

[6] = tested on: SKVLB cells; assay: cells; assay type: cell-based; details: Homo sapiens
Description: (§4) The antineoplastic agent vinblastine is incorporated into the block copolymer mixture described in Example 3.
(§5) The antineoplastic agent mitomycin C is incorporated into the block copolymer mixture described in Example 3.
(§6) The antineoplastic agent methotrexate is incorporated into the block copolymer mixture described in Example 3.
(§7) The antineoplastic agent daunorubicin is incorporated into the block copolymer mixture described in Example 3.

[7] = tested on: SKVO3 cells; assay: cells; assay type: cell-based; details: Homo sapiens; SKVO3, drug-sensitive; read-out: IC50
Description: as §4, §5, §6, §7

[8] = tested on: Dox-MCF-7; assay: Cytotoxicity against daunorubicin-resistant, verapamil-sensitive Dox-MCF-7 expressing P-170; assay type: cell-based, human
Description: The daunorubicin composition of Example 3 {Prep. […] B}.

[9] = tested on: H-69 cells; assay: Cytotoxic activity of plasma of inoculated mice on H-69 cells; assay type: cell-based, human; details: MTD i.v., plasma one hour after administration
Procedure: Anti-neoplastic activity is determined by evaluation of the cytotoxic activity of plasma of mammals inoculated with the test composition (see de Valeriola et el., Cancer Chemother. Pharmacol. 29, 133-140, 1991).
Groups (6 animals/group) of C57B1/6 7-week-old female mice are inoculated i.v. (via the tail vein) with free or micellar (N=1.3) daunorubicin obtained as described in Example 3 {Prep. B and Prep. A, respectively}. Drug concentrations (MTD) are adjusted so that a maximum volume of 0.1 mL is injected in each mouse. The experiment is repeated twice.
To obtain plasma samples, blood (10 μl) is collected from the tail artery one hour after drug administration, diluted 1:10 with sterile RPMI 1640 medium, and centrifuged at 400 g for 15 minutes. […] The cells are incubated for two hours at 37° C. and 5% CO2, and then washed three times with RPMI 1640. The pretreated cells are incubated in RPMI 1640 supplemented with 10% fetal calf serum at 37° C. and 5% CO2 for three days, after which cytotoxicity is determined as described in Example 1.

COc1cccc2c1C(=O)c1c(O)c3c(c(O)c1C2=O)C[C@@](O)(C(C)=O)C[C@@H]3O[C@H]1C[C@H](N)[C@H](O)[C@H](C)O1 [Prep. B, daunorubicin]
inhibition at 0.016 µg/mL [1]: 1%
inhibition at 0.08 µg/mL [1]: 20%
inhibition at 0.4 µg/mL [1]: 38%
inhibition at 2 µg/mL [1]: 53%
inhibition at 10 µg/mL [1]: 81%
inhibition at 50 µg/mL [1]: 100%
inhibition at 0.0032 µg/mL [2]: 2%
inhibition at 0.016 µg/mL [2]: 10%
inhibition at 0.08 µg/mL [2]: 29%
inhibition at 0.4 µg/mL [2]: 50%
inhibition at 2 µg/mL [2]: 81%
inhibition at 10 µg/mL [2]: 100%
inhibition at 50 µg/mL [2]: 100%
inhibition at 0.0032 µg/mL [3]: 21%
inhibition at 0.016 µg/mL [3]: 36%
inhibition at 0.08 µg/mL [3]: 59%
inhibition at 0.4 µg/mL [3]: 83%
inhibition at 2 µg/mL [3]: 100%
inhibition at 10 µg/mL [3]: 100%
inhibition at 50 µg/mL [3]: 100%
inhibition at 0.0032 µg/mL [4]: 1%
inhibition at 0.016 µg/mL [4]: 18%
inhibition at 0.08 µg/mL [4]: 23%
inhibition at 0.4 µg/mL [4]: 58%
inhibition at 2 µg/mL [4]: 80%
inhibition at 10 µg/mL [4]: 100%
inhibition at 50 µg/mL [4]: 100%
IC50 ([5]; 0.25 h): 4.9 µg/mL (≈ 9.29 µM)
IC50 ([5]; 0.5 h): 0.98 µg/mL (≈ 1.86 µM)
IC50 ([5]; 0.75 h): 0.405 µg/mL (≈ 0.768 µM)
IC50 ([5]; 1 h): 0.31 µg/mL (≈ 0.588 µM)
IC50 ([5]; 2 h): 0.29 µg/mL (≈ 0.55 µM)
IC50 ([5]; 4 h): 0.275 µg/mL (≈ 0.521 µM)
IC50 ([5]; 8 h): 0.28 µg/mL (≈ 0.531 µM)
IC50 ([5]; 12 h): 0.24 µg/mL (≈ 0.455 µM)
IC50 [6]: 5.85 µg/mL (≈ 11.1 µM)
IC50 [7]: 0.62 µg/mL (≈ 1.18 µM)
inhibition at 0.016 µg/mL ([8]; Homo sapiens): 2%
inhibition at 0.08 µg/mL ([8]; Homo sapiens): 7%
inhibition at 0.4 µg/mL ([8]; Homo sapiens): 39%
inhibition at 2 µg/mL ([8]; Homo sapiens): 62%
inhibition at 10 µg/mL ([8]; Homo sapiens): 86%
inhibition at 50 µg/mL ([8]; Homo sapiens): 100%
IC50 (in words) ([8]; resistant line Dox-MCF-7, statement for both resistant lines): higher IC50 's (is less toxic)
Inhibition, % ([9]; plasma dilution 1:20): 42%
Inhibition, % ([9]; plasma dilution 1:200): 5%
Inhibition, % ([9]; plasma dilution 1:2000): 0%
Inhibition, % ([9]; plasma dilution 1:20000): 0%
